Test results taken from paper PMC7615677 (Science translational medicine, 2023).
Values joined by “and” are separate entries in the source; they are usually repeats but may differ in a detail not shown here. Identical values can stand only once.

How the values were obtained:
Leishmania = assay: Activity of synthesized metabolites against Leishmania; assay type: cell-based
T. cruzi = system: T. cruzi; set-up: method as in PMID 25740547; settings: cited from earlier work
[1] = system: L. donovani intracellular amastigote stage; set-up: method as in PMID 25740547; settings: intracellular amastigote stage of L. donovani; cited from earlier work
L. infantum = assay: Promastigote back-transformation assay on organs of treated hamsters; assay type: in vivo, golden hamsters
From the text: Female golden hamsters (5 per treatment group) were infected through intracardiac administration of 2x10^7 L. infantum amastigotes obtained from the spleen of a heavily infected donor hamster. […] After 5-day treatment period, followed by a 10-day wash out period, animals were sacrificed, and parasites burden assessed in the three target organs (liver, spleen, and bone-marrow). For this assessment, organs of individual animals were weighed, except for bone-marrow thus only providing a semi-quantitative evaluation only. Impression smears were Giemsa-stained for microscopic evaluation of amastigote burden, expressed as LDU (= mean number of amastigotes/cell × organ weight in mg) and the results were expressed as a percentage reduction compared to the burdens in the control group (vehicle as placebo). For evaluating the presence of viable residual burden after treatment, a promastigote back-transformation assay was conducted. This consisted of the incubation at ambient temperature of aseptically collected pieces of spleen or liver tissue in 1 mL of promastigote back-transformation medium in 24-well plates. For the bone-marrow, resected femurs were flushed with 1 mL medium. The medium consists of HOMEM pH 6.0 prepared as described elsewhere ([5]) with 10% fetal bovine serum (Gibco), 2.5% penicillin/streptomycin and 1% gentamicin (Merck). A qualitative assessment of the presence of promastigotes was made after 3 and 5 days of incubation and a score was attributed (+, ++ or +++) based on parasite density in the positive wells.
Supplementary Materials and methods
Promastigote transformation assay
For evaluating the presence of viable residual burdens after treatment, a promastigote back-transformation assay is conducted. This test consists of the incubation at ambient temperature of aseptically collected pieces of spleen or liver tissue in 1 mL of promastigote back-transformation medium in 24-well plates. For the bone-marrow, resected femurs are flushed with 1 mL medium. The medium consists of HOMEM pH 6.0 prepared as described elsewhere (1) with 10% fetal bovine serum (Gibco) and 2.5% penicillin/streptomycin and 1% gentamicin (Merck). A qualitative assessment of the presence of promastigotes is made after 3 and 5 days of incubation and a score is attributed (+, ++ or +++) based on parasite density in the positive […]
Supplementary Information on Tables
L. infantum MHOM/FR/96/LEM3323 Cl4 was originally obtained from a French HIV-positive patient (Languedoc area in Southern France) and provided by Dr. Laurence Lachaud of the Centre National de Référence des Leishmanioses (CNRL), Montpellier, France. The miltefosine and paromomycin resistant lines (LEM3323 Cl4 MIL-R and PMM-R) were obtained by successive in vitro selection cycles on intracellular amastigotes (2, 3)

[2] = 40 mg/kg qd, 5 days, individual animals 1-10

Structure (SMILES): Cc1[nH]c2nc(N)nc(C)c2c1-c1ccc(C#N)c(O)c1O [DNDI0003578765]
- activity against Leishmania, in words (Leishmania): inactive

Structure (SMILES): Cc1nc(N)nc2[nH]c(CO)c(-c3ccc(C#N)c4c3OCO4)c12 [DNDI0003671146]
- activity against Leishmania, in words (Leishmania): inactive

Structure (SMILES): COc1ccccc1-c1c(C)[nH]c2nc(N)nc(C)c12 [TCMDC-143610]
- EC50 (T. cruzi): 0.13 µM
- EC50 [1]: 15.8 µM

Structure (SMILES): CCCCCCCCCCCCCCCCOP(=O)([O-])OCC[N+](C)(C)C [miltefosine, reference compound]
- emergence of viable promastigotes from recovered organs, in words (L. infantum; 40 mg/kg): more than half of those following miltefosine administration at 40 mg/kg were positive
- parasite score, Bone-marrow (L. infantum; [2]): ++ (4×) and + (4×) and - (2×)
- parasite score, Liver (L. infantum; [2]): + (3×) and - (7×)
- parasite score, Spleen (L. infantum; [2]): + (5×) and ++ (4×) and -
